Measurements reported in US20060167109A1, “Methods of reducing rhinovirus contagion and related compositions” (priority 2002, published 2006).
In brackets after ≈: the same amount, converted by molar mass. Several values for one entry are separate records, joined by “and”; a condition that tells them apart may be missing. Equal entries are not always repeated.

Tests used:
101 serotypes of HRVs = experiment: Spectrum of activity in HRV cytopathic effect assay
Experimental: HRV stocks were grown in HeLa (WIS) cells in 150 cm^2 flasks, frozen/thawed 3 times, aliquoted and stored frozen at −80° C. The virus inoculum to be used in the assay for each virus was determined as follows. HeLa (WIS) cells were seeded on 96-well tissue culture plates (Costar, 3598) at a density of 2.8×10^4 cells/well in M199 medium (Sigma) supplemented with 5% heat-inactivated newborn bovine serum. Twenty-four hours later, serial 0.5 log10 dilutions of each virus stock were plated in octuplicate onto the cells in complete M199 medium (5% heat-inactivated fetal bovine serum (FBS), 0.15 mM MgCl2, and 7.5 μg/mL diethylamino-dextran (DEAE-dextran)). The plates were incubated for 3 days at 33° C. in a humidified, 2.5% CO2 atmosphere, then fixed with 5% glutaraldehyde and stained with 0.1% crystal violet. After rinsing and drying, the optical density of the wells was read at a wavelength of 570 nm (OD570) on a Bio-Tek model EL-310 plate reader.

HRV serotype 1A = experiment: Reversibility of pleconaril binding; type: cell-based, human rhinovirus
Experimental: (§1) The first question presented is whether pleconaril could bind to human rhinoviruses irreversibly. Various HRVs were incubated overnight at 4° C. with pleconaril at a concentration approximately 10 times the IC50 value. Parallel samples were incubated in medium with 0.5% dimethyl sulfoxide (DMSO) alone. The next day, samples were diluted 10,000-fold into pleconaril-free medium and incubated an additional 24 hrs at 4° C., followed by titration by plaque assay.
(§2) After 24 hours, virus samples were diluted 10,000-fold in culture medium and incubated an additional 24 hours at 4° C. Virus titers in the DMSO- and pleconaril-treated samples were then determined by plaque assay in the appropriate cell line as described below.
(§3) In some experiments, virus titers were determined by plaque assay. Cells in 6 well plates were infected with 1 mL of 10-fold dilutions of virus in duplicate for 1 hour at the appropriate incubation temperature. The inoculum was then removed and the cells were overlaid with 3 mL of agarose overlay medium (Eagles minimum essential medium (Life Technologies, Grand Island, N.Y.) with 50 mM Hepes buffer, pH 7.2, 5% FBS, antibiotics, and 1.5% SeaPlaque (HRVs)). The HRV overlay medium was further supplemented with 30 mM MgCl2 and 15 μg/mL DEAE dextran. […] After rinsing and drying, plaques were read manually.

HRV serotype 14 [1] = experiment: Reversibility of pleconaril binding; type: cell-based, human rhinovirus
Experimental: as §1, §2, §3

HRV serotype 3 [2] = experiment: Reversibility of pleconaril binding; type: cell-based, human rhinovirus
Experimental: as §1, §2, §3

HRV serotype 5 = experiment: Reversibility of pleconaril binding; type: cell-based, human rhinovirus; settings: about 10 times IC50, then diluted 10,000-fold, plaque assay
Experimental: as §1, §2, §3

HRV serotype 2 [3] = experiment: Reversibility of pleconaril binding; type: cell-based, human rhinovirus
Experimental: as §1, §2, §3

HRV serotype 89 = experiment: Reversibility of pleconaril binding; type: cell-based, human rhinovirus
Experimental: as §1, §2, §3

HRV serotype 50 = experiment: Reversibility of pleconaril binding; type: cell-based, human rhinovirus
Experimental: as §1, §2, §3

Aqueous solubility = type: physicochemical
HRV serotype 55 = experiment: HRV cytopathic effect assay; type: cell-based; settings: Human rhinovirus sp.
Experimental: (§4) For sensitivity testing to pleconaril, the appropriate cells were seeded into 96 well plates at a concentration of 4×10^4/well. After an overnight incubation at 37° C., the medium was removed and the cells were infected with 150 μL of a dilution of virus previously titrated to give ≧85% lysis of the monolayer after 3 days of incubation. The plates were incubated for 1 hour at the appropriate temperature and then overlaid with 50 μL of medium containing serial 2-fold dilutions of pleconaril in 2% DMSO. The final DMSO concentration in the assay was always 0.5%. No virus and no pleconaril controls were included on each plate. All drug concentrations were run in quadruplicate. The plates were then incubated for 3 days at the appropriate temperature followed by processing as described above.

HRV serotype 32 = experiment: HRV cytopathic effect assay; type: cell-based; settings: Human rhinovirus sp.
Experimental: as §4

HRV serotype 20 = experiment: HRV cytopathic effect assay; type: cell-based; settings: Human rhinovirus sp.
Experimental: as §4

HRV serotype 88 = experiment: HRV cytopathic effect assay; type: cell-based; settings: Human rhinovirus sp.
Experimental: as §4

HRV serotype 97 = experiment: HRV cytopathic effect assay; type: cell-based; settings: Human rhinovirus sp.
Experimental: as §4

HRV serotype 14 [4] = experiment: HRV cytopathic effect assay; type: cell-based; settings: Human rhinovirus sp.
Experimental: as §4

HRV serotype 62 = experiment: HRV cytopathic effect assay; type: cell-based; settings: Human rhinovirus sp.
Experimental: as §4

HRV serotype 70 = experiment: HRV cytopathic effect assay; type: cell-based; settings: Human rhinovirus sp.
Experimental: as §4

HRV serotype 3 [5] = experiment: HRV cytopathic effect assay; type: cell-based; settings: Human rhinovirus sp.
Experimental: as §4

HRV serotype 22 = experiment: HRV cytopathic effect assay; type: cell-based; settings: Human rhinovirus sp.
Experimental: as §4

HRV serotype 57 = experiment: HRV cytopathic effect assay; type: cell-based; settings: Human rhinovirus sp.
Experimental: as §4

HRV serotype 58 = experiment: HRV cytopathic effect assay; type: cell-based; settings: Human rhinovirus sp.
Experimental: as §4

HRV serotype 98 = experiment: HRV cytopathic effect assay; type: cell-based; settings: Human rhinovirus sp.
Experimental: as §4

HRV serotype 61 = experiment: HRV cytopathic effect assay; type: cell-based; settings: Human rhinovirus sp.
Experimental: as §4

HRV serotype 38 = experiment: HRV cytopathic effect assay; type: cell-based; settings: Human rhinovirus sp.
Experimental: as §4

HRV serotype 23 = experiment: HRV cytopathic effect assay; type: cell-based; settings: Human rhinovirus sp.
Experimental: as §4

HRV serotype 2 [6] = experiment: HRV cytopathic effect assay; type: cell-based; settings: Human rhinovirus sp.
Experimental: as §4

HRV serotype 75 = experiment: HRV cytopathic effect assay; type: cell-based; settings: Human rhinovirus sp.
Experimental: as §4

HRV serotype 12 = experiment: HRV cytopathic effect assay; type: cell-based; settings: Human rhinovirus sp.
Experimental: as §4

HRV serotype 19 = experiment: HRV cytopathic effect assay; type: cell-based; settings: Human rhinovirus sp.
Experimental: as §4

HRV serotype 21 = experiment: HRV cytopathic effect assay; type: cell-based; settings: Human rhinovirus sp.
Experimental: as §4

HRV serotype 29 = experiment: HRV cytopathic effect assay; type: cell-based; settings: Human rhinovirus sp.
Experimental: as §4

Cc1cc(CCCOc2c(C)cc(-c3noc(C(F)(F)F)n3)cc2C)on1 [pleconaril, 3-[3,5-dimethyl-4-[3-(3-methyl-5-isoxazolyl)propoxy]phenyl]-5-(trifluoromethyl)-1,2,4-oxadiazole]
MIC50 (101 serotypes of HRVs; Human rhinovirus sp., read-out: MIC50 (concentration inhibiting 50% of the HRV serotypes)): ≤ 0.2 µM and ≤ 0.08 µg/mL | MIC80 (101 serotypes of HRVs; Human rhinovirus sp., read-out: MIC80 (concentration inhibiting 80% of the HRV serotypes)): ≤ 0.78 µM and ≤ 0.3 µg/mL | MIC90 (101 serotypes of HRVs; Human rhinovirus sp., read-out: MIC90 (concentration inhibiting 90% of the HRV serotypes)): ≤ 4.3 µM and ≤ 1.6 µg/mL | HRVs whose replication was inhibited (101 serotypes of HRVs; of 101 prototypic serotypes): 93 of 101 | reversibility of binding to the virion (HRV serotype 1A; HRV-1A): reversible upon dilution | % Recovery of input infectious virus (% SD) (HRV serotype 1A; serotype 1A, about 10 times IC50, then diluted 10,000-fold, plaque assay): 85.4 (52.8) % | reversibility of binding to the virion (HRV serotype 14 [1]; HRV serotype 14): binds irreversibly | % Recovery of input infectious virus (% SD) (HRV serotype 14 [1]; serotype 14, about 10 times IC50, then diluted 10,000-fold, plaque assay): 16.4 (33.9) % | reversibility of binding to the virion (HRV serotype 3 [2]; HRV-3): reversible upon dilution | % Recovery of input infectious virus (% SD) (HRV serotype 3 [2]; serotype 3, about 10 times IC50, then diluted 10,000-fold, plaque assay): 92.8 (40.4) % | % Recovery of input infectious virus (% SD) (HRV serotype 5): 118 (53.5) % | reversibility of binding to the virion (HRV serotype 2 [3]; HRV-2): reversible upon dilution | % Recovery of input infectious virus (% SD) (HRV serotype 2 [3]; serotype 2, about 10 times IC50, then diluted 10,000-fold, plaque assay): 65.8 (51.3) % | reversibility of binding to the virion (HRV serotype 89; HRV serotype 89): binds irreversibly | % Recovery of input infectious virus (% SD) (HRV serotype 89; serotype 89, about 10 times IC50, then diluted 10,000-fold, plaque assay): 9.9 (100) % | reversibility of binding to the virion (HRV serotype 50; HRV serotype 50): binds irreversibly | % Recovery of input infectious virus (% SD) (HRV serotype 50; serotype 50, about 10 times IC50, then diluted 10,000-fold, plaque assay): 11.9 (40) % | solubility (Aqueous solubility): 0.02 µg/mL (≈ 0.0524 µM) | IC50 (HRV serotype 55): 0.02 ± 0.02 µM | IC50 (HRV serotype 32): 0.33 ± 0.13 µM | IC50 (HRV serotype 20): 0.06 µM | IC50 (HRV serotype 88): 0.1 ± 0.04 µM | IC50 (HRV serotype 97): > 12.5 µM | IC50 (HRV serotype 14 [4]; HRV14, Table 2, mean of at least two independent determinations): 0.16 ± 0.09 µM | IC50 (HRV serotype 14 [4]; serotype 14): 0.16 ± 0.09 µM | IC50 (HRV serotype 62): 0.16 ± 0.06 µM | IC50 (HRV serotype 70): 0.3 ± 0.19 µM | IC50 (HRV serotype 3 [5]; HRV3, Table 2, mean of at least two independent determinations): 0.09 ± 0.04 µM | IC50 (HRV serotype 3 [5]; serotype 3): 0.09 ± 0.04 µM | IC50 (HRV serotype 22): 0.04 ± 0.02 µM | IC50 (HRV serotype 57): 0.17 ± 0.05 µM | IC50 (HRV serotype 58): 0.04 ± 0.03 µM | IC50 (HRV serotype 98): 1.8 ± 1.62 µM | IC50 (HRV serotype 61): 0.21 ± 0.08 µM | IC50 (HRV serotype 38): 0.1 ± 0.04 µM | IC50 (HRV serotype 23): 0.32 ± 0.01 µM | IC50 (HRV serotype 2 [6]; HRV2, Table 2, mean of at least two independent determinations): 0.03 ± 0.03 µM | IC50 (HRV serotype 2 [6]; serotype 2): 0.03 ± 0.03 µM | IC50 (HRV serotype 75): 0.11 ± 0.06 µM | IC50 (HRV serotype 12): 0.39 ± 0.12 µM | IC50 (HRV serotype 19): 0.2 ± 0.01 µM | IC50 (HRV serotype 21): 0.04 ± 0.01 µM | IC50 (HRV serotype 29): 0.27 ± 0.07 µM
